From patent publication US12318361B2, “Methods for treating cardiovascular diseases” (Olatec Therapeutics LLC, priority 2017, dated 2025)

Assays:
[1] = tested on: adult CD1 male mice, acute myocardial infarction; assay: Acute myocardial infarction (30 min ischemia, 24 h reperfusion), infarct sparing effect, Example 8; format: in vivo; conditions: 60 mg/kg IP immediately after reperfusion, vs vehicle
Experimental: An acute myocardial infarction in adult CD1 male mice was induced by performing a transient surgical ligation of the left coronary artery for 30 minutes followed by reperfusion for 24 hours: 3 mice received OLT1177™ (60 mg/kg) given intraperitoneally immediately after reperfusion and 8 mice received an equal volume of vehicle (NaCl 0.9%). After 24 hours, left ventricular fractional shortening, a surrogate for cardiac systolic function, was measured, using transthoracic echocardiography. After the echocardiogram, the mice were prepared for infarct size measurement using the Triphenyl-Tetrazolium-Chloride (TTC) and Evans Blue technique and then sacrificed: the area of the heart considered not ischemia (non-risk area) appeared blue, the area of the heart that was at risk but viable appeared red, the infarct myocardium appeared pale-white. The left panel of FIG. 6 depicts the TTC/Evans Blue staining of one mouse treated with vehicle and one with OLT1177™: it is apparent that the area of infarct is much larger in the vehicle.

[2] = tested on: IL-1β, IL-6 and IL-1α in hearts of mice; assay: Cytokine levels in heart homogenates after in vivo lipopolysaccharide challenge; design: species or system C57BL/6J mice; conditions: 200 mg/kg IP every 12 h for 5 doses; LPS 5 mg/kg IP, 2 h; vs saline, P<0.05
Experimental: C57BL/6J mice male mice, 22-26 grams (Jackson Laboratories, Bar Harbor, ME) were treated with 200 mg/kg dapansutrile (OLT1177™) in 200 μl of saline or the matching volume of vehicle (saline) intraperitoneally (IP) every 12 hours for 5 doses. One hour after the last dose or saline, the animals were injected IP with 200 μl of lipopolysaccharide (LPS, E. coli, 055: B5, Sigma-Aldrich) at 5 mg/kg and sacrificed after 2 h. Cytokines were measured in hearts homogenates. Tissue homogenates were lysed using RIPA buffer (Sigma-Aldrich) containing a mixture of protease inhibitors (Roche, Indianapolis, IN), centrifuged at 13,000g for 20 minutes at 4° C., and the supernatants were assayed for cytokine levels of IL-1β, IL-6 and IL-1α. The cytokine concentrations were corrected for total protein content.
The dose of LPS that was used in the study covers ischemic inflammation, vascular inflammation and cell-mediated inflammation.

[3] = tested on: caspase-1; assay: Western blot for caspase-1 (p45 and p10) in J774A.1 cells after LPS/ATP stimulation; format: cell-based, murine
Experimental: (§1) J774A.1 murine macrophages cells were stimulated with 1 μg/ml lipopolysaccharide (LPS) for 4 hours and either nigericin (NIG, 10 μM) or ATP (5 mM) was added for 1 hour. OLT1177™ was added to the cells either 30 minutes following LPS stimulation or at the same time as ATP.
A subunit of activated caspase-1 (p10) was reduced in J774A.1 cells in the presence of dapansutrile (OLT).

[4] = target: T1, NLRP3 inflammasome (association of caspase-1 with NLRP3) (Homo sapiens, UniProt Q96P20); assay: FRET analysis of NLRP3 inflammasome assembly in human monocyte-derived macrophages after LPS/ATP; format: cell-based; conditions: 50 μM, HMDM from 4 donors, P<0.01
T1 construct: endogenous in cells; host or cells: human monocyte-derived macrophages (HMDM) from 4 healthy donors
Experimental: Human monocyte-derived macrophages (HMDM) were cultured on glass slides for 5 days with GM-CSF, stimulated for 4 hours with […] LPS and then treated with 5 mM ATP for one hour. Dapansutrile (OLT1177™, 50 μM) was added to the cells either 30 minutes following LPS stimulation or at the same time as ATP.
After washing with PBS, the cells were fixed and permeabilized with 70-30 acetone-methanol as described by Gamboni et al, Physiol Rep., 2 (7), 2014. Briefly, cells were placed in a humidified slide chamber blocked for 1 hour in 10% normal donkey serum (Jackson Immunologicals, Westgrove, PA). After removal of the donkey serum, the primary antibodies to human NLRP3 (Cryo-2, AdipoGen San Diego, CA), human caspase-1 (sc-515, Santa Cruz Biotechnology) or isomolar, species-specific anti-IgG (R&D Systems) were added and kept overnight at 4° C. […] FRET images were acquired using a Marianas Imaging Station using a Zeiss 639 Plan-Apochromat objective (1.4 N/A), a Sutter Xenon light source and a Cooke SensiCam as described by Gamboni et al. The corrected FRET was calculated as FRET=Transfer-Fd/D donor-Fa/Aa acceptor as reported by Berney et al, Biophys J., 84:3992-4010, 2003. […]

[5] = tested on: caspase-1; assay: Caspase-1 activity in J774A.1 cell lysates after LPS and nigericin stimulation; format: cell-based, murine; conditions: 50 μM, J774A.1 cells, n=3, p<0.05
Experimental: as §1
1 cell lysates following LPS and NIG stimulation in presence of 50 μM dapansutrile (OLT1177™). Caspase-1 activity is expressed as percent change of the mean value of each assay (n=3) with LPS/NIG set at 100%. Caspase-1 activity was reduced by 35% (p<0.05) in an enzymatic assay of cell lysate from stimulated cells in the presence of dapansutrile, comparing with control.

[6] = tested on: IL-18 release from human monocytes-derived macrophages; assay: Suppression of IL-18 release from human monocytes-derived macrophages (LPS priming, nigericin release, ELISA); format: cell-based
Experimental: Peripheral blood mononuclear cells (PBMCs) were isolated from blood of 6 healthy human donors and differenciates in macrophages using GM-CSF (5 ng/ml) for 5 days. They were stimulated with 1 μg/mL with lipopolysaccharide (LPS, priming phase) at time zero. At 30 minutes, they were incubated with different concentrations of dapansutrile (OLT1177™) from 0.001-100 μM. At 4 hours, 10 μM of nigericin (NIG, release phase) was added. At the end of an 5 hour incubation period, the supernatant was harvested and assayed for IL-1β or IL-18 using respective ELISA kits following manafacturer's protocols.

T1 sequence (Q96P20 whole entry): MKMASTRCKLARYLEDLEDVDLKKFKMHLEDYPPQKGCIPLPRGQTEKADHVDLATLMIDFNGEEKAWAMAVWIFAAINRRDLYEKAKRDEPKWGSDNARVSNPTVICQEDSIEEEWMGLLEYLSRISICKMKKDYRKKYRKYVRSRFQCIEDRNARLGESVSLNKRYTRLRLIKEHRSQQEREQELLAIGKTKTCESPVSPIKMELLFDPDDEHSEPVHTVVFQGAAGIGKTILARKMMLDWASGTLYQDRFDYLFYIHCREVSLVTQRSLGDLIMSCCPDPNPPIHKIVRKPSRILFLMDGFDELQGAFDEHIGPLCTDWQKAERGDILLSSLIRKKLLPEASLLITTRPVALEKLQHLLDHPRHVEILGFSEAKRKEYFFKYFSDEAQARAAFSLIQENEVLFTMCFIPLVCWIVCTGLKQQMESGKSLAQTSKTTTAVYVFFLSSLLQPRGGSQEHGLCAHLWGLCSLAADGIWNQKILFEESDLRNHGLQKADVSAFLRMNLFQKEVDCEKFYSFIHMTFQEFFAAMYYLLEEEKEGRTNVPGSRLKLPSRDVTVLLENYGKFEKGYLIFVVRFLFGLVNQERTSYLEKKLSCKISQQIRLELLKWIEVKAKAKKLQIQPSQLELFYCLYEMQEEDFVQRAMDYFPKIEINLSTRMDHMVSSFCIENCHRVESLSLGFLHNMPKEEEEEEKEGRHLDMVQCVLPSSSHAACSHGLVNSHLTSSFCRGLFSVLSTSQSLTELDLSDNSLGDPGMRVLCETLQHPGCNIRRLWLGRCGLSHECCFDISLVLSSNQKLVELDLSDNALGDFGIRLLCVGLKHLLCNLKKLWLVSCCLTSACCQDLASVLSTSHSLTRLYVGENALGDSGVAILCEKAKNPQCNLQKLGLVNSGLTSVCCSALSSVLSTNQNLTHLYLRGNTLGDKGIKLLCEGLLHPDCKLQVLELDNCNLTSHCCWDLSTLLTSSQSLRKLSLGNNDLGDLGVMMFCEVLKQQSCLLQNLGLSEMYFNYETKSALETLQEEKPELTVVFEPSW

Which results are given for CS(=O)(=O)CCC#N [OLT1177™, 3-methanesulfonyl-propionitrile]?
infarct size as percentage of the area-at-risk [1]: significantly smaller; left ventricular systolic function (fractional shortening) [1]: preservation; cytokine level of IL-1α in hearts [2]: reduced; cytokine level of IL-1β in hearts [2]: reduced; cytokine level of IL-6 in hearts [2]: reduced; subunit of activated caspase-1 (p10), Western blot [3]: reduced; association of caspase-1 with NLRP3 (FRET intensity) [4]: reduced; reduction of caspase-1 activity in cell lysate (LPS/NIG set at 100%) [5]: 35%; concentration of maximum suppression effects on IL-18 release ([6]; HMDM, 1 μg/mL LPS then 10 μM nigericin, 0.001-100 μM tested): 10 to 50 µM; release of IL-18 from stimulated monocytes-derived macrophages ([6]; LPS/nigericin, compared to control): suppresses
